{"source": "PubChem BioAssay AID256", "about": "(DTP/NCI, 2004)", "test_system": "CD2F1 mice, L1210 leukemia ip, survival T/C", "test": "NCI In Vivo Anticancer Drug Screen. Data for tumor model L1210 Leukemia (intraperitoneal) in CD2F1 (CDF1) mice", "settings": "endpoint: mean survival time, higher = longer survival", "summary_of_the_method": "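Vehicle-treated tumor-bearing mice served as controls (C) for compound-treated mice (T). Reported figure is T divided by C.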", "key": {"[1]": {"settings": "dose: 100.0 mg/kg/injection, schedule: Q04DX002 (ip), vehicle: saline with Tween-80"}, "[2]": {"settings": "dose: 200.0 mg/kg/injection, schedule: Q04DX002 (ip), vehicle: saline with Tween-80"}, "[3]": {"settings": "dose: 400.0 mg/kg/injection, schedule: Q04DX002 (ip), vehicle: saline with Tween-80"}, "[4]": {"settings": "dose: 100.0 mg/kg/injection, schedule: Q01DX009 (ip), vehicle: saline with Tween-80"}, "[5]": {"settings": "dose: 200.0 mg/kg/injection, schedule: Q01DX009 (ip), vehicle: saline with Tween-80"}, "[6]": {"settings": "dose: 400.0 mg/kg/injection, schedule: Q01DX009 (ip), vehicle: saline with Tween-80"}, "[7]": {"settings": "dose: 100.0 mg/kg/injection, schedule: Q04DX003 (ip), vehicle: saline with Tween-80"}, "[8]": {"settings": "dose: 200.0 mg/kg/injection, schedule: Q04DX003 (ip), vehicle: saline with Tween-80"}, "[9]": {"settings": "dose: 400.0 mg/kg/injection, schedule: Q04DX003 (ip), vehicle: saline with Tween-80"}, "[10]": {"settings": "dose: 100.0 mg/kg/injection, schedule: Q01DX001 (ip), vehicle: saline"}, "[11]": {"settings": "dose: 200.0 mg/kg/injection, schedule: Q01DX001 (ip), vehicle: saline"}, "[12]": {"settings": "dose: 100.0 mg/kg/injection, schedule: Q04DX003 (ip), vehicle: Klucel (hydroxypropylcellulose) (HPC)"}, "[13]": {"settings": "dose: 200.0 mg/kg/injection, schedule: Q04DX003 (ip), vehicle: Klucel (hydroxypropylcellulose) (HPC)"}, "[14]": {"settings": "dose: 100.0 mg/kg/injection, schedule: Q01DX001 (ip), vehicle: Klucel (hydroxypropylcellulose) (HPC)"}, "[15]": {"settings": "dose: 200.0 mg/kg/injection, schedule: Q01DX001 (ip), vehicle: Klucel (hydroxypropylcellulose) (HPC)"}, "[16]": {"settings": "dose: 400.0 mg/kg/injection, schedule: Q01DX001 (ip), vehicle: Klucel (hydroxypropylcellulose) (HPC)"}}, "note": "Several values for one entry are separate records, joined by “and”; a condition that tells them apart may be missing. Equal values may be shown once. Toxic doses and inconclusive results are not listed.", "data": [{"smiles": "COc1ccc(CCNC(=S)NC(=O)c2cc(OC)c(OC)c(OC)c2)cc1OC", "values": [{"measurement": "T/C", "setting": "[1]", "value": "87 % of control"}, {"measurement": "T/C", "setting": "[2]", "value": "97 % of control"}, {"measurement": "T/C", "setting": "[3]", "value": "102 % of control"}]}, {"smiles": "Cc1ccccc1NC(=S)Nc1ccccn1", "values": [{"measurement": "T/C", "setting": "[4]", "value": "95 % of control"}, {"measurement": "T/C", "setting": "[5]", "value": "98 % of control"}, {"measurement": "T/C", "setting": "[6]", "value": "93 % of control"}]}, {"smiles": "O=C(O)c1c(Cl)ccc(F)c1Cl", "values": [{"measurement": "T/C", "setting": "[1]", "value": "105 % of control"}, {"measurement": "T/C", "setting": "[2]", "value": "105 % of control"}, {"measurement": "T/C", "setting": "[3]", "value": "94 % of control"}]}, {"smiles": "Nc1nc(Nc2ccccc2)c2ncn(C3OC(CO)C(O)C3O)c2n1", "note": "(stereo unspecified)", "values": [{"measurement": "T/C", "setting": "dose: 6.25 mg/kg/injection, schedule: Q01DX005 (ip), vehicle: distilled water + Tween-80", "value": "98 % of control"}, {"measurement": "T/C", "setting": "dose: 12.5 mg/kg/injection, schedule: Q01DX005 (ip), vehicle: distilled water + Tween-80", "value": "98 % of control"}, {"measurement": "T/C", "setting": "dose: 25.0 mg/kg/injection, schedule: Q01DX005 (ip), vehicle: distilled water + Tween-80", "value": "102 % of control"}, {"measurement": "T/C", "setting": "dose: 50.0 mg/kg/injection, schedule: Q01DX005 (ip), vehicle: distilled water + Tween-80", "value": "101 % of control"}, {"measurement": "T/C", "setting": "dose: 100.0 mg/kg/injection, schedule: Q01DX005 (ip), vehicle: distilled water + Tween-80", "value": "98 % of control"}]}, {"smiles": "COc1ccc(C2NCCc3cc(OC)c(OC)cc32)cc1OC", "note": "(stereo unspecified)", "values": [{"measurement": "T/C", "setting": "dose: 12.5 mg/kg/injection, schedule: Q01DX009 (ip), vehicle: water", "value": "98 % of control"}, {"measurement": "T/C", "setting": "dose: 25.0 mg/kg/injection, schedule: Q01DX009 (ip), vehicle: water", "value": "98 % of control"}, {"measurement": "T/C", "setting": "dose: 50.0 mg/kg/injection, schedule: Q01DX009 (ip), vehicle: water", "value": "98 % of control"}, {"measurement": "T/C", "setting": "dose: 100.0 mg/kg/injection, schedule: Q01DX009 (ip), vehicle: water", "value": "106 % of control"}]}, {"smiles": "C[Si](C)(C)CS(=O)[O-].[C-]#[O+].[C-]#[O+].[Fe+6].[c-]1[c-][c-][cH-][c-]1", "values": [{"measurement": "T/C", "setting": "dose: 12.5 mg/kg/injection, schedule: Q04DX002 (ip), vehicle: saline", "value": "105 % of control"}, {"measurement": "T/C", "setting": "dose: 25.0 mg/kg/injection, schedule: Q04DX002 (ip), vehicle: saline", "value": "94 % of control"}, {"measurement": "T/C", "setting": "dose: 50.0 mg/kg/injection, schedule: Q04DX002 (ip), vehicle: saline", "value": "87 % of control"}]}, {"smiles": "CCOC(=O)C(OCC)P(=O)(OCC)OCC", "note": "(stereo unspecified)", "values": [{"measurement": "T/C", "setting": "dose: 25.0 mg/kg/injection, schedule: Q01DX005 (ip), vehicle: water", "value": "101 % of control"}, {"measurement": "T/C", "setting": "dose: 50.0 mg/kg/injection, schedule: Q01DX005 (ip), vehicle: water", "value": "101 % of control"}, {"measurement": "T/C", "setting": "dose: 100.0 mg/kg/injection, schedule: Q01DX005 (ip), vehicle: water", "value": "101 % of control"}, {"measurement": "T/C", "setting": "dose: 200.0 mg/kg/injection, schedule: Q01DX005 (ip), vehicle: water", "value": "101 % of control"}, {"measurement": "T/C", "setting": "dose: 400.0 mg/kg/injection, schedule: Q01DX005 (ip), vehicle: water", "value": "97 % of control"}]}, {"smiles": "[Cl][Pt][Cl].c1ccc([PH+](c2ccccc2)c2ccccc2)cc1.c1ccc([PH+](c2ccccc2)c2ccccc2)cc1", "values": [{"measurement": "T/C", "setting": "dose: 100.0 mg/kg/injection, schedule: Q01DX001 (ip), vehicle: saline with Tween-80", "value": "95 % of control"}, {"measurement": "T/C", "setting": "dose: 200.0 mg/kg/injection, schedule: Q01DX001 (ip), vehicle: saline with Tween-80", "value": "92 % of control"}, {"measurement": "T/C", "setting": "dose: 400.0 mg/kg/injection, schedule: Q01DX001 (ip), vehicle: saline with Tween-80", "value": "92 % of control"}]}, {"smiles": "CC(C)(CCC(=S)N1CCOCC1)C1CCCCC1", "values": [{"measurement": "T/C", "setting": "[7]", "value": "97 % of control"}, {"measurement": "T/C", "setting": "[8]", "value": "96 % of control"}, {"measurement": "T/C", "setting": "[9]", "value": "97 % of control"}]}, {"smiles": "Cn1c(=O)c2c(ncn2CN2CCN(Cn3cnc4c3c(=O)n(C)c(=O)n4C)CC2)n(C)c1=O", "values": [{"measurement": "T/C", "setting": "[10]", "value": "94 % of control"}, {"measurement": "T/C", "setting": "[11]", "value": "97 % of control"}]}, {"smiles": "O=C(Nc1cc2ccccc2o1)O/N=C/c1ccccn1", "values": [{"measurement": "T/C", "setting": "[7]", "value": "92 % of control"}, {"measurement": "T/C", "setting": "[8]", "value": "92 % of control"}, {"measurement": "T/C", "setting": "[9]", "value": "86 % of control"}]}, {"smiles": "O=C(CCl)Nc1ccccc1Cl", "values": [{"measurement": "T/C", "setting": "[12]", "value": "97 % of control"}, {"measurement": "T/C", "setting": "[13]", "value": "103 % of control"}]}, {"smiles": "CN=C(NC)c1ccc(NC(=O)c2ccc(C(=O)Nc3ccc(C(=NC)NC)cc3)c(N)c2)cc1", "values": [{"measurement": "T/C", "setting": "dose: 2.25 mg/kg/injection, schedule: Q01DX Z (ip), vehicle: water", "value": "176 % of control"}, {"measurement": "T/C", "setting": "dose: 4.5 mg/kg/injection, schedule: Q01DX Z (ip), vehicle: water", "value": "176 % of control"}]}, {"smiles": "Nc1ncnc2c1ncn2C1OC(CO)C2[O][Sn]([c]3ccccc3)([c]3ccccc3)[O]C21", "note": "(stereo unspecified)", "values": [{"measurement": "T/C", "setting": "dose: 1.56 mg/kg/injection, schedule: Q01DX005 (ip), vehicle: other", "value": "107 % of control"}, {"measurement": "T/C", "setting": "dose: 3.13 mg/kg/injection, schedule: Q01DX005 (ip), vehicle: other", "value": "105 % of control"}, {"measurement": "T/C", "setting": "dose: 6.25 mg/kg/injection, schedule: Q01DX005 (ip), vehicle: other", "value": "100 % of control"}, {"measurement": "T/C", "setting": "dose: 12.5 mg/kg/injection, schedule: Q01DX005 (ip), vehicle: other", "value": "90 % of control and 107 % of control"}]}, {"smiles": "c1ccc(Cc2ccccc2-c2ccccc2)cc1", "values": [{"measurement": "T/C", "setting": "[12]", "value": "89 % of control"}, {"measurement": "T/C", "setting": "[13]", "value": "89 % of control"}, {"measurement": "T/C", "setting": "dose: 400.0 mg/kg/injection, schedule: Q04DX003 (ip), vehicle: Klucel (hydroxypropylcellulose) (HPC)", "value": "93 % of control"}]}, {"smiles": "CCOC(=O)c1c[nH]c2ccc([N+](=O)[O-])cc2c1=O", "values": [{"measurement": "T/C", "setting": "[14]", "value": "111 % of control"}, {"measurement": "T/C", "setting": "[4]", "value": "97 % of control"}, {"measurement": "T/C", "setting": "[7]", "value": "90 % of control"}, {"measurement": "T/C", "setting": "[15]", "value": "96 % of control"}, {"measurement": "T/C", "setting": "[5]", "value": "100 % of control"}, {"measurement": "T/C", "setting": "[8]", "value": "91 % of control"}, {"measurement": "T/C", "setting": "[16]", "value": "100 % of control"}, {"measurement": "T/C", "setting": "[6]", "value": "94 % of control"}, {"measurement": "T/C", "setting": "[9]", "value": "88 % of control"}]}, {"smiles": "CCOC(=O)C(CC)(OC(C)=O)C(=O)C=O", "note": "(stereo unspecified)", "values": [{"measurement": "T/C", "setting": "[10]", "value": "108 % of control"}, {"measurement": "T/C", "setting": "[11]", "value": "112 % of control"}, {"measurement": "T/C", "setting": "dose: 400.0 mg/kg/injection, schedule: Q01DX001 (ip), vehicle: saline", "value": "116 % of control"}]}, {"smiles": "CCCCCCCCC(=O)NCCCNC(=O)CCCCCCCC", "values": [{"measurement": "T/C", "setting": "dose: 75.0 mg/kg/injection, schedule: Q04DX003 (ip), vehicle: saline", "value": "88 % of control"}, {"measurement": "T/C", "setting": "dose: 150.0 mg/kg/injection, schedule: Q04DX003 (ip), vehicle: saline", "value": "88 % of control"}, {"measurement": "T/C", "setting": "dose: 300.0 mg/kg/injection, schedule: Q04DX003 (ip), vehicle: saline", "value": "103 % of control"}]}, {"smiles": "NC(=O)c1nccnc1C(N)=O", "values": [{"measurement": "T/C", "setting": "[14]", "value": "101 % of control"}, {"measurement": "T/C", "setting": "[15]", "value": "108 % of control"}, {"measurement": "T/C", "setting": "[16]", "value": "101 % of control"}]}]}
